Measured values reported in patent publication US20240308968A1, “FUNGICIDAL SUBSTITUTED HETEROCYCLES” (FMC Corporation, priority 2021, published 2024).

Experiments:
Format in all cases: in vivo
Conditions in all cases: 100 = 100% disease control, 0 = no control
Zymoseptoria tritici = assay: Test A: preventive spray on wheat seedlings, wheat leaf blotch disease rating
Description: (§1) General protocol for preparing test suspensions for Tests A-F: the test compounds were first dissolved in acetone in an amount equal to 3% of the final volume and then suspended at the desired concentration (in ppm) in acetone and purified water (50/50 mix by volume) containing 50 to 250 ppm of the surfactant PEG400 (polyhydric alcohol esters). The resulting test suspensions were then used in Tests A-F.
The test solution was sprayed to the point of run-off on wheat seedlings. The following day the seedlings were inoculated with a spore suspension of Zymoseptoria tritici (the causal agent of wheat leaf blotch) and incubated in a saturated atmosphere at 24° C. for 48 h, and then moved to a growth chamber at 20° C. for 17 days, after which time disease ratings were made. […]

[1] = test system: Blumeria graminis f. sp. Tritici; assay: Test C: preventive spray on wheat seedlings, wheat powdery mildew disease rating
Description: as §1
The test suspension was sprayed to the point of run-off on wheat seedlings. The following day the seedlings were inoculated with a spore dust of Blumeria graminis f. sp. Tritici, (also known as Erysiphe graminis f. sp. Tritici, the causal agent of wheat powdery mildew) and incubated in a growth chamber at 20° C. for 8 days, after which time visual disease ratings were made.
(§2) The test suspension was sprayed to the point of run-off on tomato seedlings. The following day the seedlings were inoculated with a spore suspension of Alternaria solani (the causal agent of tomato early blight) and incubated in a saturated atmosphere at 27° C. for 48 h, and then moved to a growth chamber at 20° C. for 3 days, after which time visual disease ratings were made. A rating of 100 indicates 100% disease control and a rating of 0 indicates no disease control (relative to the controls). A dash (-) indicates the compound was not tested.

Alternaria solani = assay: Test F: preventive spray on tomato seedlings, tomato early blight disease rating
Description: as §1, §2

Botrytis cinerea = assay: Test E: preventive spray on tomato seedlings, tomato Botrytis disease rating
Description: as §1
The test suspension was sprayed to the point of run-off on tomato seedlings. The following day the seedlings were inoculated with a spore suspension of Botrytis cinerea (the causal agent of tomato Botrytis) and incubated in a saturated atmosphere at 20° C. for 48 h, and then moved to a growth chamber at 24° C. for 3 days, after which time visual disease ratings were made.
as §2

Phakopsora pachyrhizi = assay: Test D: preventive spray on soybean seedlings, Asian soybean rust disease rating
Description: as §1
The test solution was sprayed to the point of run-off on soybean seedlings. The following day the seedlings were inoculated with a spore suspension of Phakopsora pachyrhizi (the causal agent of Asian soybean rust) and incubated in a saturated atmosphere at 22° C. for 24 h and then moved to a growth chamber at 22° C. for 8 days, after which time visual disease ratings were made.
as §2

[2] = test system: Puccinia recondita f. sp. Tritici; assay: Test B: preventive spray on wheat seedlings, wheat leaf rust disease rating
Description: as §1
The test solution was sprayed to the point of run-off on wheat seedlings. The following day the seedlings were inoculated with a spore suspension of Puccinia recondita f. sp. Tritici (the causal agent of wheat leaf rust) and incubated in a saturated atmosphere at 20° C. for 24 h, and then moved to a growth chamber at 20° C. for 7 days, after which time disease ratings were made.
as §2

[3] = Zymoseptoria tritici, 456 h, 50 ppm
[4] = Blumeria graminis, 192 h, 50 ppm
[5] = Alternaria solani, 120 h, 50 ppm
[6] = Botrytis cinerea, 120 h, 50 ppm
[7] = Phakopsora pachyrhizi, 216 h, 50 ppm
[8] = Puccinia recondita, 192 h, 50 ppm

SMILES | Test A disease control rating (Zymoseptoria tritici; 50 ppm) [%] | Test C disease control rating ([1]; 50 ppm) [%] | Test F disease control rating (Alternaria solani; 50 ppm) [%] | Test E disease control rating (Botrytis cinerea; 50 ppm) [%] | Test D disease control rating (Phakopsora pachyrhizi; 50 ppm) [%] | Test B disease control rating ([2]; 50 ppm) [%] | also measured
COc1cc(OC)c(Cl)c(-n2c(-c3ccc(F)cc3Cl)c(C)c(=O)n(C)c2=O)c1 [Compound 37, 1-(2-chloro-3,5-dimethoxyphenyl)-6-(2-chloro-4-fluorophenyl)-3,5-dimethyl-2,4(1H,3H)-pyrimidinedione] |  |  |  |  |  |  | pest or weed control at 50 ppm (Zymoseptoria tritici; [3]): 100%; pest or weed control at 50 ppm [1, 4]: 98%; pest or weed control at 50 ppm (Alternaria solani; [5]): 53%; pest or weed control at 50 ppm (Botrytis cinerea; [6]): 95%; pest or weed control at 50 ppm (Phakopsora pachyrhizi; [7]): 77%; pest or weed control at 50 ppm [2, 8]: 100%
CCOC(=O)c1nn(-c2cc(OC)cc(OC)c2Cl)c(-c2ccc(F)cc2F)c(C(=O)OCC)c1=O [Compound 127] | 0 | 0 | 0 | 0 | 0 | 41 | 
COc1cc(OC)c(Cl)c(-n2c(-c3ccc(F)cc3Cl)cc(=O)n(C)c2=O)c1 [Compound 36, 1-(2-chloro-3,5-dimethoxyphenyl)-6-(2-chloro-4-fluorophenyl)-3-methyl-2,4(1H,3H)-pyrimidinedione] |  |  |  |  |  |  | pest or weed control at 50 ppm (Zymoseptoria tritici; [3]): 95%; pest or weed control at 50 ppm [1, 4]: 92%; pest or weed control at 50 ppm (Alternaria solani; [5]): 0%; pest or weed control at 50 ppm (Botrytis cinerea; [6]): 88%; pest or weed control at 50 ppm (Phakopsora pachyrhizi; [7]): 89%; pest or weed control at 50 ppm [2, 8]: 100%
COc1cc(OC)cc(-n2c(-c3ccc(F)cc3Cl)cc(=O)n(C)c2=O)c1 [Compound 34, 6-(2-chloro-4-fluorophenyl)-1-(3,5-dimethoxyphenyl)-3-methyl-2,4(1H,3H)-pyrimidinedione] |  |  |  |  |  |  | pest or weed control at 250 ppm (Zymoseptoria tritici; Zymoseptoria tritici, 456 h, 250 ppm): 25%; pest or weed control at 250 ppm ([1]; Blumeria graminis, 192 h, 250 ppm): 0%; pest or weed control at 250 ppm (Alternaria solani; Alternaria solani, 120 h, 250 ppm): 0%; pest or weed control at 250 ppm (Botrytis cinerea; Botrytis cinerea, 120 h, 250 ppm): 63%; pest or weed control at 250 ppm (Phakopsora pachyrhizi; Phakopsora pachyrhizi, 216 h, 250 ppm): 64%; pest or weed control at 250 ppm ([2]; Puccinia recondita, 192 h, 250 ppm): 86%
COc1cc(OC)c(Cl)c(-n2nc(C#N)c(=O)c(C)c2-c2ccc(F)cc2Cl)c1 [Compound 83] | 99 | 98 | 100 | 94 | 100 | 100 | 
COc1ccc(Cl)c(-n2nc(NC(C)=O)c(=O)cc2-c2ccc(F)cc2Cl)c1 [Compound 135] | 41 | 0 | 0 | 94 | 0 | 89 | 
COc1cc(OC)cc(-c2ncnc(OC)c2-c2c(F)cc(F)cc2F)c1 [Compound 51] | 0 | 0 | 0 | 30 | 8 | 9 | 
COc1cc(OC)cc(-c2c(-c3c(F)cc(F)cc3F)noc(=O)c2C)c1 [Compound 60] | 82 | 96 | 62 | 87 | 75 | 99 | 
COc1cc(OC)cc(-c2nc(C)nc(Cl)c2-c2ccc(F)cc2Cl)c1 [Compound 52] |  |  |  |  |  |  | Test A disease control rating (Zymoseptoria tritici; 250 ppm): 100%; Test C disease control rating ([1]; 250 ppm): 99%; Test F disease control rating (Alternaria solani; 250 ppm): 26%; Test E disease control rating (Botrytis cinerea; 250 ppm): 94%; Test D disease control rating (Phakopsora pachyrhizi; 250 ppm): 13%; Test B disease control rating ([2]; 250 ppm): 89%
CCOC(=O)c1nn(-c2cc(OC)cc(OC)c2)c(-c2ccc(F)cc2F)c(C(=O)OCC)c1=O [Compound 88] |  |  |  |  |  |  | Test A disease control rating (Zymoseptoria tritici; 250 ppm): 0%; Test C disease control rating ([1]; 250 ppm): 0%; Test F disease control rating (Alternaria solani; 250 ppm): 0%; Test E disease control rating (Botrytis cinerea; 250 ppm): 0%; Test D disease control rating (Phakopsora pachyrhizi; 250 ppm): 0%; Test B disease control rating ([2]; 250 ppm): 0%
COc1ccc(-c2c(Br)c(=O)c(C)nn2-c2cc(OC)ccc2Cl)c(Cl)c1 [Compound 130] | 100 | 99 | 100 | 99 | 98 | 100 | 
CCn1c(-c2ccc(F)cc2Cl)c(-c2cc(OC)ccc2Cl)cc(C#N)c1=O [Compound 159] | 100 | 27 | 94 | 99 | 77 | 100 | 
COc1cc(OC)cc(-c2c(-c3ccc(F)cc3F)noc(=O)c2C)c1 [Compound 61] | 63 | 0 | 0 | 83 | 0 | 55 | 
CCOC(=O)c1nn(-c2cc(OC)cc(OC)c2)c(-c2ccc(F)cc2)c(C(=O)OCC)c1=O [Compound 125] | 3 | 0 | 0 | 0 | 0 | 28 | 
Cc1c(-c2ccc(F)cc2Cl)c(-c2cc(Br)sc2Br)nn(C)c1=O [Compound 13] | 99 | 73 | 0 | 90 | 0 | 80 | 
Cc1cscc1-c1nn(C)c(=O)c(C)c1-c1ccc(F)cc1Cl [Compound 14] | 100 | 97 | 94 | 96 | 72 | 99 | 
COc1cc(OC)c(Cl)c(-c2nc(C)nc(C)c2-c2c(F)cccc2F)c1 [Compound 55] | 100 | 100 | 99 | 99 | 100 | 100 | 
COc1ccc(Cl)c(-c2nn(C)c(=O)c(C)c2-c2cnccc2C)c1 [Compound 21, 6-(2-chloro-5-methoxyphenyl)-2,4-dimethyl-5-(4-methyl-3-pyridinyl)-3(2H)-pyridazinone] |  |  |  |  |  |  | pest or weed control at 50 ppm (Zymoseptoria tritici; [3]): 54%; pest or weed control at 50 ppm [1, 4]: 86%; pest or weed control at 50 ppm (Alternaria solani; [5]): 0%; pest or weed control at 50 ppm (Botrytis cinerea; [6]): 96%; pest or weed control at 50 ppm (Phakopsora pachyrhizi; [7]): 25%; pest or weed control at 50 ppm [2, 8]: 68%
COc1cc(OC)cc(-n2nc(CF)c(=O)c(C)c2-c2ccc(F)cc2Cl)c1 [Compound 90] | 99 | 97 | 99 | 99 | 100 | 100 | 
COc1cc(-c2cc(C#N)c(=O)n(C)c2-c2ccc(F)cc2Cl)ccc1Cl [Compound 160] |  |  |  |  |  |  | Test A disease control rating (Zymoseptoria tritici; 250 ppm): 46%; Test C disease control rating ([1]; 250 ppm): 0%; Test E disease control rating (Botrytis cinerea; 250 ppm): 94%; Test D disease control rating (Phakopsora pachyrhizi; 250 ppm): 0%; Test B disease control rating ([2]; 250 ppm): 80%
Cc1c(-c2ccc(F)cc2Cl)c(-c2cccs2)nn(C)c1=O [Compound 9] | 100 | 95 | 16 | 98 | 8 | 79 | 
